| SMILES | melting point [°C] |
| --- | --- |
| Cc1cc(S(=O)(=O)CCC#N)ccc1NC(=O)Cc1ccc(C)c(Oc2cc(Cl)cc(C#N)c2)c1 [Compound I-137, 2-[3-(3-Chloro-5-cyano-phenoxy)-4-methyl-phenyl]-N-[4-(2-cyano-ethanesulfonyl)-2-methyl-phenyl]-acetamide] | 186.1 to 188 |
| Cc1cc(CC(=O)Nc2ccc(S(N)(=O)=O)cc2Cl)cc(Oc2cc(Cl)cc(C#N)c2)c1 [Compound I-143, 2-[3-(3-Chloro-5-cyano-phenoxy)-5-methyl-phenyl]-N-(2-chloro-4-sulfamoyl-phenyl)-acetamide] | 194.1 to 195.9 |
| Cc1cc(CC(=O)Nc2ccc(S(N)(=O)=O)cc2)cc(Oc2cc(C#N)ccc2Cl)c1 [Compound I-146, 2-[3-(2-Chloro-5-cyano-phenoxy)-5-methyl-phenyl]-N-(4-sulfamoyl-phenyl)-acetamide] | 235.9 to 236.7 |
| Cc1cc(OCC[C@@H](O)CO)ccc1NC(=O)Cc1ccc(C)c(Oc2cc(Cl)cc(C#N)c2)c1 [Compound I-151, 2-[3-(3-Chloro-5-cyano-phenoxy)-4-methyl-phenyl]-N-[4-((R)-3,4-dihydroxy-butoxy)-2-methyl-phenyl]-acetamide] | 104.9 to 106.4 |
| Cc1cc(S(=O)(=O)CCCO)ccc1NC(=O)Cc1ccc(C)c(Oc2cc(Cl)cc(C#N)c2)c1 [Compound I-157, 2-[3-(3-Chloro-5-cyano-phenoxy)-4-methyl-phenyl]-N-[4-(3-hydroxy-propane-1-sulfonyl)-2-methyl-phenyl]-acetamide] | 78.9 to 79.5 |
| Cc1cc(N2CC[S+]([O-])CC2)ccc1NC(=O)Cc1ccc(C)c(Oc2cc(Cl)cc(C#N)c2)c1 [Compound I-160, 2-[3-(3-Chloro-5-cyano-phenoxy)-4-methyl-phenyl]-N-[2-methyl-4-(1-oxo-1λ^4-thiomorpholin-4-yl)-phenyl]-acetamide] | 181.3 to 182.1 |
| Cc1cc(N2CCCS2(=O)=O)ccc1NC(=O)Cc1ccc(C)c(Oc2cc(Cl)cc(C#N)c2)c1 [Compound I-170, 2-[3-(3-Chloro-5-cyano-phenoxy)-4-methyl-phenyl]-N-[4-(1,1-dioxo-1λ^6-isothiazolidin-2-yl)-2-methyl-phenyl]-acetamide] | 182.5 to 184.6 |
| COCCC(=O)N(C)S(=O)(=O)c1ccc(NC(=O)Cc2ccc(Cl)c(Oc3cc(Cl)cc(C#N)c3)c2F)c(Cl)c1 [Compound I-172, 2-[4-Chloro-3-(3-chloro-5-cyano-phenoxy)-2-fluoro-phenyl]-N-{2-chloro-4-[(3-methoxy-propionyl)-methyl-sulfamoyl]-phenyl}-acetamide] | 199.3 to 203 |
| CCOC(=O)C(=O)Nc1ccc(NC(=O)Cc2ccc(C)c(Oc3cc(Cl)cc(C#N)c3)c2)c(C)c1 [Compound I-178, N-(4-{2-[3-(3-Chloro-5-cyano-phenoxy)-4-methyl-phenyl]-acetylamino}-3-methyl-phenyl)-oxalamic acid ethyl ester] | 182.5 to 183.9 |
| Cc1cc(CC(=O)Nc2ccc(S(N)(=O)=O)cc2)cc(Oc2cc(Cl)cc(C#N)c2)c1C [Compound I-182, 2-[3-(3-Chloro-5-cyano-phenoxy)-4,5-dimethyl-phenyl]-N-(4-sulfamoyl-phenyl)-acetamide] | 229.7 to 231.3 |
| Cc1cc(CC(=O)Nc2ccc(S(N)(=O)=O)cc2Cl)cc(Oc2cc(Cl)cc(C#N)c2)c1C [Compound I-184, 2-[3-(3-Chloro-5-cyano-phenoxy)-4,5-dimethyl-phenyl]-N-(2-chloro-4-sulfamoyl-phenyl)-acetamide] | 224.3 to 225.7 |
| Cc1cc(S(N)(=O)=O)ccc1NC(=O)Cc1ccc(Cl)c(Oc2cc(C#N)cc(C#CCO)c2)c1F [Compound I-186, 2-{4-Chloro-3-[3-cyano-5-(3-hydroxy-prop-1-ynyl)-phenoxy]-2-fluoro-phenyl}-N-(2-methyl-4-sulfamoyl-phenyl)-acetamide] | 170.1 to 173.2 |
| Cc1cc(S(N)(=O)=O)ccc1NC(=O)Cc1ccc(Cl)c(Oc2cc(C#N)cc(C#CCN(C)C)c2)c1F [Compound I-187, 2-{4-Chloro-3-[3-cyano-5-(3-dimethylamino-prop-1-ynyl)-phenoxy]-2-fluoro-phenyl}-N-(2-methyl-4-sulfamoyl-phenyl)-acetamide] | 156.2 to 158.2 |

Second part, the compound after the results:

| melting point [°C] | SMILES |
| --- | --- |
| 186.9 to 187.6 | CCCC(=O)N(C)S(=O)(=O)c1ccc(NC(=O)Cc2ccc(Cl)c(Oc3cc(Cl)cc(C#N)c3)c2F)c(Cl)c1 [Compound I-139, N-[4-(Butyryl-methyl-sulfamoyl)-2-chloro-phenyl]-2-[4-chloro-3-(3-chloro-5-cyano-phenoxy)-2-fluoro-phenyl]-acetamide] |
| 183.9 to 185.2 | Cc1cc(CC(=O)Nc2ccc(S(N)(=O)=O)cc2)cc(Oc2cc(Cl)cc(C#N)c2)c1 [Compound I-141, 2-[3-(3-Chloro-5-cyano-phenoxy)-5-methyl-phenyl]-N-(4-sulfamoyl-phenyl)-acetamide] |
| 184.8 to 186 | Cc1cc(CC(=O)Nc2ccc(S(N)(=O)=O)cc2C)cc(Oc2cc(Cl)cc(C#N)c2)c1 [Compound I-142, 2[3-(3-Chloro-5-cyano-phenoxy)-5-methyl-phenyl]-N-(2-methyl-4-sulfamoyl-phenyl)-acetamide] |
| 196.4 to 198.7 | N#Cc1cccc(Oc2cc(CC(=O)Nc3ccc(S(N)(=O)=O)cc3)cc3ccoc23)c1 [Compound I-144, 2-[7-(3-Cyano-phenoxy)-benzofuran-5-yl]-N-(4-sulfamoyl-phenyl)-acetamide] |
| 218.9 to 220 | Cc1cc(S(N)(=O)=O)ccc1NC(=O)Cc1cc(Oc2cccc(C#N)c2)c2occc2c1 [Compound I-145, 2-[7-(3-Cyano-phenoxy)-benzofuran-5-yl]-N-(2-methyl-4-sulfamoyl-phenyl)-acetamide] |
| 200.3 to 201.1 | Cc1cc(CC(=O)Nc2ccc(S(N)(=O)=O)cc2C)cc(Oc2cc(C#N)ccc2Cl)c1 [Compound I-147, 2-[3-(2-Chloro-5-cyano-phenoxy)-5-methyl-phenyl]-N-(2-methyl-4-sulfamoyl-phenyl)-acetamide] |
| 212.9 to 214.4 | Cc1cc(CC(=O)Nc2ccc(S(N)(=O)=O)cc2Cl)cc(Oc2cc(C#N)ccc2Cl)c1 [Compound I-148, 2-[3-(2-Chloro-5-cyano-phenoxy)-5-methyl-phenyl]-N-(2-chloro-4-sulfamoyl-phenyl)-acetamide] |
| 215.1 to 216.6 | NS(=O)(=O)c1ccc(NC(=O)Cc2cc(Oc3cc(Cl)cc(Cl)c3)c3occc3c2)c(Cl)c1 [Compound I-149, N-(2-Chloro-4-sulfamoyl-phenyl)-2-[7-(3,5-dichloro-phenoxy)-benzofuran-5-yl]-acetamide] |
| 137.5 to 138.4 | Cc1cc(OC[C@@H](O)CO)ccc1NC(=O)Cc1ccc(C)c(Oc2cc(Cl)cc(C#N)c2)c1 [Compound I-150, 2-[3-(3-Chloro-5-cyano-phenoxy)-4-methyl-phenyl]-N-[4-((S)-2,3-dihydroxy-propoxy)-2-methyl-phenyl]-acetamide] |
| 180.5 to 181.4 | Cc1cc(S(=O)(=O)CC(=O)O)ccc1NC(=O)Cc1ccc(C)c(Oc2cc(Cl)cc(C#N)c2)c1 [Compound I-152, (4-{2-[3-(3-Chloro-5-cyano-phenoxy)-4-methyl-phenyl]-acetylamino}-3-methyl-benzenesulfonyl)-acetic acid] |
| 92.4 to 95.5 | Cc1cc(S(=O)(=O)CCN)ccc1NC(=O)Cc1ccc(C)c(Oc2cc(Cl)cc(C#N)c2)c1 [Compound I-154, N-[4-(2-Amino-ethanesulfonyl)-2-methyl-phenyl]-2-[3-(3-chloro-5-cyano-phenoxy)-4-methyl-phenyl]-acetamide] |
| 84.3 to 85.6 | Cc1cc(N2CCCCS2(=O)=O)ccc1NC(=O)Cc1ccc(C)c(Oc2cc(Cl)cc(C#N)c2)c1 [Compound I-158, 2-[3-(3-Chloro-5-cyano-phenoxy)-4-methyl-phenyl]-N-[4-(1,1-dioxo-1λ^6-[1,2]thiazinan-2-yl)-2-methyl-phenyl]-acetamide] |
| 62.3 to 64.1 | Cc1cc(C(=O)CN2CCN(C)CC2)ccc1NC(=O)Cc1ccc(C)c(Oc2cc(Cl)cc(C#N)c2)c1 [Compound I-159, 2-[3-(3-Chloro-5-cyano-phenoxy)-4-methyl-phenyl]-N-{2-methyl-4-[2-(4-methyl-piperazin-1-yl)-acetyl]-phenyl}-acetamide] |
| 64.8 to 65.4 | Cc1cc(N2CCS(=O)(=O)CC2)ccc1NC(=O)Cc1ccc(C)c(Oc2cc(Cl)cc(C#N)c2)c1 [Compound I-161, 2-[3-(3-Chloro-5-cyano-phenoxy)-4-methyl-phenyl]-N-[4-(1,1-dioxo-1λ^6-thiomorpholin-4-yl)-2-methyl-phenyl]-acetamide] |
| 198.2 to 200.6 | CCC(=O)N(C)S(=O)(=O)c1ccc(NC(=O)Cc2ccc(Cl)c(Oc3cc(Cl)cc(C#N)c3)c2F)c(Cl)c1 [Compound I-162, 2-[4-Chloro-3-(3-chloro-5-cyano-phenoxy)-2-fluoro-phenyl]-N-[2-chloro-4-(methyl-propionyl-sulfamoyl)-phenyl]-acetamide] |
| 199.1 to 200 | CNS(=O)(=O)c1ccc(NC(=O)Cc2ccc(Cl)c(Oc3cc(Cl)cc(C#N)c3)c2F)c(Cl)c1 [Compound I-168, 2-[4-Chloro-3-(3-chloro-5-cyano-phenoxy)-2-fluoro-phenyl]-N-(2-chloro-4-methylsulfamoyl-phenyl)-acetamide] |
| 183.2 to 185.5 | COCC(=O)N(C)S(=O)(=O)c1ccc(NC(=O)Cc2ccc(Cl)c(Oc3cc(Cl)cc(C#N)c3)c2F)c(Cl)c1 [Compound I-171, 2-[4-Chloro-3-(3-chloro-5-cyano-phenoxy)-2-fluoro-phenyl]-N-{2-chloro-4-[(2-methoxy-acetyl)-methyl-sulfamoyl]-phenyl}-acetamide] |
| 230.8 to 233.4 | Cc1cc(S(N)(=O)=O)ccc1NC(=O)Cc1cc(C)c(C)c(Oc2cc(Cl)cc(C#N)c2)c1 [Compound I-183, 2-[3-(3-Chloro-5-cyano-phenoxy)-4,5-dimethyl-phenyl]-N-(2-methyl-4-sulfamoyl-phenyl)-acetamide] |
| 246 to 250.6 | Cc1cc(S(N)(=O)=O)ccc1NC(=O)Cc1ccc(Cl)c(Oc2cc(Br)cc(C#N)c2)c1F [Compound I-185, 2-[3-(3-Bromo-5-cyano-phenoxy)-4-chloro-2-fluoro-phenyl]-N-(2-methyl-4-sulfamoyl-phenyl)-acetamide] |
